From patent publication US6900216B2, “Dihydroimidazo[2,1-b]thiazole and dihydro-5h-thiazolo[3,2-A]pyrimidines as antidepressant agents” (Knoll GmbH, priority 2000, dated 2005) come the findings set out here.

For data set [1], the target named is T1, noradrenaline (NA) reuptake sites (Rattus norvegicus, UniProt Q63380).
T1 construct: Frontal cortical tissue from the brains of male Charles River rats; from tissue; host or cells: rat frontal cortical membranes
Description: NA uptake: displacement of [3H]nisoxetine from noradrenaline reuptake sites, rat frontal cortical membranes. It is filed as binding. Particulars: for Ki: [3H]nisoxetine 0.6 nM, rat frontal cortical membranes, fit to data from three experiments; for inhibition at 1 µM: read-out: NA uptake % displacement at 10^−6 M. The protocol: Frontal cortical tissue from the brains of male Charles River rats weighing 150-250 g was homogenised in ice-cold 50 mM Tris-HCl, pH 7.4 (at 25° C.) containing 120 mM sodium chloride and 5 mM potassium chloride (Tris buffer; 1:60 w/v) using a Kinematic polytron (speed setting 6 for 10 seconds) and centrifuged at 40,000 g for 10 minutes. The supernatant was discarded and the pellet rehomogenised in Tris buffer, 1:60 w/v, and centrifuged at 40,000 g for 10 minutes. This step was repeated twice more so that, in total, the brain tissue was homogenised and centrifuged four times. The final pellet was resuspended in 50 mM Tris-HCl, pH 7.4 containing 300 mM sodium chloride and 5 mM potassium chloride (equivalent to 18.75 mg wet weight of tissue/ml) and used immediately in the binding assay. All centrifugations were performed at 4° C.
Membranes (400 μl; equivalent to 7.5 mg wet weight of tissue/tube) were incubated with 50 μl [^3H]nisoxetine at a single concentration of 0.6 nM and 50 μl of distilled water (total binding) or 50 μl^− of test compound (at a single concentration 10^−6M or at 10 concentrations ranging from 10^−11-10^−3 M) or 50 μl of mazindol (1 μM; non-specific binding) for 4 h at 4° C. Membrane bound radioactivity was recovered by filtration under vacuum through Skatron 11734 filters using a Skatron cell harvester. Filters were rapidly washed with ice-cold 50 mM Tris-HCl, pH 7.4 containing 120 mM sodium chloride and 5 mM potassium chloride (wash setting 9,9,0). The scored filter paper discs were punched out into vials, scintillation fluid added and radioactivity determined by liquid scintillation counting.
(§1) For each of these tests measuring the ability of compounds of Formula I to displace standard ligands from 5-HT1A receptors and 5-hydroxytryptamine (5-HT) and noradrenaline (NA) reuptake sites and muscarinic receptors in vitro, the percentage displacement of specific binding of tritiated ligand by 10^−6 M test compound was calculated in the following way.
(§2) Firstly, specific binding of tritiated ligand in the absence (A) and presence (B) of test compound was determined:
(§3) In the absence of compound: A(dpm)=Total binding (dpm)−Non-specific binding (dpm) In the presence of compound (10^−6 M): B(dpm)=Binding at 10^−6M (dpm)−Non-specific binding (dpm)
(§4) The specific binding of tritiated ligand in the presence (B) of compound was then converted to a percentage of specific binding of tritiated ligand in the absence (A) of compound: % Specific binding at 10^−6 M=B(dpm)/A(dpm)×100
(§5) The percentage displacement of specific binding of tritiated ligand by the test compound (10^−6 M) was then obtained by subtraction of the percentage specific binding in the presence of compound from the percentage specific binding in the absence of compound, which is taken as the maximum binding and so equals 100%:
(§6) % Displacement at 10^−6 M=100−% Specific binding at 10^−6 M.
(§7) In some cases, displacement curves were then produced for compounds which displaced ≧50% of specific binding of the tritiated ligand at 10^−6 M using a range of concentrations of the compound. The Ki was then calculated by simultaneous fitting using equations derived from the Feldman equations by robust non-linear regression to data from three experiments simultaneously (De Lean et al., 1978; Munson and Rodbard, 1980; Feldman, 1992). Munson P J and Rodbard D. Ligand: a versatile computerised approach for characterisation of ligand binding systems. Anal Biochem 1980; 107: 220. Feldman HA. Mathematical theory of complex ligand binding systems at equilibrium: some methods for parameter fitting. Anal Biochem 1992: 48, 317. De Lean A, Munson P J and Rodbard D. Simultaneous analysis of families of sigmoidal curves: application to bioassay, radioligand assay, and physiological dose-response curves. Am J Physiol 1978: 235 (2), E97-E102. […]

The test system of the next data set is muscarinic receptors. In words: Muscarinic binding: displacement of [3H]N-methylscopolamine, rat frontal cortical membranes. Particulars: for Muscarinic % displacement at 10^−6 M: 10^−6 M test compound, single determination, [3H]N-methylscopolamine; for Ki: [3H]N-methylscopolamine 0.15 nM, rat frontal cortical membranes. The protocol: Frontal cortical tissue from the brains of male Charles River rats weighing 150-250 g was homogenised in ice-cold 20 mM HEPES buffer, pH 7.5 (measured at 25° C.) containing 100 mM sodium chloride and 10 mM magnesium chloride (1:10 w/v) using a Polytron PT3100 (speed setting 21,700 rpm, 3×5 seconds) and centrifuged at 49,500 g for 30 minutes at 4° C. The supernatant was discarded and the pellet rehomogenised in 20 mM HEPES buffer, pH 7.5 containing 100 mM sodium chloride and 10 mM magnesium chloride (equivalent to 12.5 mg wet weight of tissue/ml). Membranes were stored at −80° C. until required.
Membranes were thawed, diluted 1:10 in ice-cold 20 mM HEPES buffer, pH 7.5 containing 100 mM sodium chloride and 10 mM magnesium chloride and homogenised using a Polytron PT3100 as above. Diluted membranes (200 μl; equivalent to 0.25 mg wet weight of tissue/tube) were incubated with 200 μl of 20 mM HEPES buffer, pH 7.5 containing 100 mM sodium chloride and 10 mM magnesium chloride and 50 μl [^3H]N-methylscopolamine at a single concentration of 0.15 nM and 50 μl distilled water (total binding) or 50 μl test compound (at a single concentration of 10^−6 M or at 10 concentrations ranging from 10^−11-10^−3 M) or 50 μl atropine sulphate (1 μM; non-specific binding) for 30 min at 30° C. Membrane bound radioactivity was recovered by filtration under vacuum through Skatron 11734 filters using a Skatron cell harvester. Filters were rapidly washed with ice-cold 20 mM HEPES buffer, pH 7.5 (wash 1,2 at setting 5,5). The scored filter paper discs were punched out into vials, scintillation fluid added and radioactivity determined by liquid scintillation counting.
as §1, §2, §3, §4, §5, §6, §7
(Loss of bound radioactivity is the signal in a displacement assay; it reports binding, not function.)

In general, Ki refers to the dissociation constant of the complex between target and ligand, obtained from inhibition or displacement. Low values mean tighter binding, high ones weaker binding. One may read the melting point as the temperature of the solid-liquid transition.

T1 sequence (Q63380 1-617): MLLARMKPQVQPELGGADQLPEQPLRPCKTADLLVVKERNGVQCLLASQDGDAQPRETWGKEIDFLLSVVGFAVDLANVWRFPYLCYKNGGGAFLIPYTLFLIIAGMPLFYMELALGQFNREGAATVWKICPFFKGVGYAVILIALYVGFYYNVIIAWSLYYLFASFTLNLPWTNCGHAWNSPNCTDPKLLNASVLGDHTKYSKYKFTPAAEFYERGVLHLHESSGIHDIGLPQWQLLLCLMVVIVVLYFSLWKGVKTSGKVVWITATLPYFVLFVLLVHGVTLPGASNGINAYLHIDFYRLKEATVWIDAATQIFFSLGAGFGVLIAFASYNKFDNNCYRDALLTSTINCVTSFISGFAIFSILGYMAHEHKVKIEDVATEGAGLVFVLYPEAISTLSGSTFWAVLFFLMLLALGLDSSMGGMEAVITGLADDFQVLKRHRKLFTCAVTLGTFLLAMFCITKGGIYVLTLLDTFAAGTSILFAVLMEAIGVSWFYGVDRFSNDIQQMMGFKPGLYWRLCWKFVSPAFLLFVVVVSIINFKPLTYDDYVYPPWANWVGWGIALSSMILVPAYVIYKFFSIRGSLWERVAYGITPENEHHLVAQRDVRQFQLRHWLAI

For `CC1=C(c2cccc3ccsc23)N2CCN=C2S1.Cl` [Example 23, 3-(benzo[b]thiophen-7-yl)-2-methyl-5,6-dihydroimidazo[2,1-b]thiazole hydrochloride], the melting point lay in the range of 210 to 212 °C. In addition, the Ki in data set [1] came out at 4 nM. The “Muscarinic % displacement at 10^−6 M” value with muscarinic receptors is recorded as −5%.

As for `Br.CC1=C(c2ccc3ccsc3c2)N2CCN=C2S1` [Example 37, 3-(benzo[b]thiophen-6-yl)-2-methyl-5,6-dihydroimidazo[2,1-b]thiazole hydrobromide], the melting point fell in the range of 252 to 254 °C. The same compound came in with a Ki in data set [1] of 7.4 nM. The “Muscarinic % displacement at 10^−6 M” value in the data set on muscarinic receptors was determined as 9%.

`CC1=C(c2cccc3sc(C)cc23)N2CCN=C2S1.Cl` [Example 33, 2-methyl-3-(2-methylbenzo[b]thiophen-4-yl)-5,6-dihydroimidazo[2,1-b]thiazole hydrochloride] came in with a melting point of 271 °C. In data set [1], the inhibition at 1 µM stood at 84%. For the same compound, the “Muscarinic % displacement at 10^−6 M” value in the data set with muscarinic receptors is 38%.

Turning to `OCC1=C(c2cc3ccccc3s2)N2CCN=C2S1` [Example 15, [3-(benzo[b]thiophen-2-yl)-5,6-dihydroimidazo[2,1-b]thiazol-2-yl]methanol], the melting point was in the range of 138 to 140 °C. In addition, in data set [1], the Ki is 18 nM. Further, the “Muscarinic % displacement at 10^−6 M” value with muscarinic receptors is on record as −15%.

As for `CSC1=C(c2cccc3sccc23)N2CCN=C2S1.O=C(O)/C=C/C(=O)O` [Example 32, 3-(benzo[b]thiophen-4-yl)-2-(methylthio)-5,6-dihydroimidazo[2,1-b]thiazole fumarate], the melting point fell in the range of 185 to 187 °C. Moreover, the affinity in data set [1] corresponds to a Ki of 3.5 nM. This compound had a Ki at muscarinic receptors (fumarate) of 331 nM.

Turning to `Br.CC1=C(c2ccc(F)c3sccc23)N2CCN=C2S1` [Example 38, 3-(7-fluorobenzo[b]thiophen-4-yl)-2-methyl-5,6-dihydroimidazo[2,1-b]thiazole hydrobromide], the melting point fell in the range of 265 to 267 °C. The same compound displayed a Ki in data set [1] of 1.2 nM. Further, the “Muscarinic % displacement at 10^−6 M” value in the data set on muscarinic receptors is 12%.

The compound `Br.c1cc(C2=C(C3CC3)SC3=NCCN32)c2ccsc2c1` [Example 34, 3-(benzo[b]thiophen-4-yl)-2-cyclopropyl-5,6-dihydroimidazo[2,1-b]thiazole hydrobromide] registered a melting point of 213 to 214 °C. In addition, in data set [1], the Ki amounted to 2 nM. This compound also returned a Ki on muscarinic receptors of 76 nM.

Regarding `Br.CC1=C(c2ccc3sccc3c2)N2CCN=C2S1` [Example 21, 3-(benzo[b]thiophen-5-yl)-2-methyl-5,6-dihydroimidazo[2,1-b]thiazole hydrobromide], the melting point turned out to be 285 °C. The same compound displayed a Ki in data set [1] of 5.5 nM. In addition, in the data set on muscarinic receptors, the “Muscarinic % displacement at 10^−6 M” value came to 9%.

`CC(C)C1=C(c2cccc3sccc23)N2CCN=C2S1.O=C(O)/C=C/C(=O)O` [Example 35, 3-(benzo[b]thiophen-4-yl)-2-(1-methylethyl)-5,6-dihydroimidazo[2,1-b]thiazole fumarate] displayed a melting point of 175 to 178 °C. The same compound gave a Ki in data set [1] of 5.5 nM. This compound had a Ki on muscarinic receptors of 492 nM.

Take `CCC1=C(c2ccc3sccc3c2)N2CCN=C2S1.O=C(O)/C=C/C(=O)O` [Example 31, 3-(benzo[b]thiophen-5-yl)-2-ethyl-5,6-dihydroimidazo[2,1-b]thiazole fumarate]: the melting point is 145 to 150 °C. Moreover, in data set [1], the Ki was 4.3 nM. Further, the “Muscarinic % displacement at 10^−6 M” value in the data set with muscarinic receptors was determined as 26%.

In turn, `Br.Clc1cccc2sc(C3=CSC4=NCCN34)cc12` [Example 1, 3-(4-chlorobenzo[b]thiophen-2-yl)-5,6-dihydroimidazo[2,1-b]thiazole hydrobromide] showed a melting point of 273 to 274 °C. The inhibition at 1 µM in data set [1] is 103%. The “Muscarinic % displacement at 10^−6 M” value in the data set on muscarinic receptors is 7%.

`Cc1cccc2sc(C3=CSC4=NCCN34)cc12.Cl` [Example 14, 3-(4-methylbenzo[b]thiophen-2-yl)-5,6-dihydroimidazo[2,1-b]thiazole hydrochloride]: the melting point is 238 to 245 °C. Besides, the inhibition at 1 µM in data set [1] was 87%. In addition, the “Muscarinic % displacement at 10^−6 M” value in the data set on muscarinic receptors came to 9%.

`Br.CC1=C(c2cc3c(Cl)cccc3s2)N2CCCN=C2S1` [Example 17, 3-(4-chlorobenzo[b]thiophen-2-yl)-2-methyl-6,7-dihydro-5H-thiazolo[3,2-a]pyrimidine hydrobromide] yielded a melting point of 236 to 238 °C. Moreover, the inhibition at 1 µM in data set [1] was determined as 84%. Further, the “Muscarinic % displacement at 10^−6 M” value in the data set with muscarinic receptors is given as 29%.

For `OCC1=C(c2cc3c(Cl)cccc3s2)N2CCN=C2S1` [Example 4, [3-(4-chlorobenzo[b]thiophen-2-yl)-5,6-dihydroimidazo[2,1-b]thiazol-2-yl]methanol], the melting point lay within 170 to 172 °C. Besides, the Ki in data set [1] was 25 nM. Besides, the “Muscarinic % displacement at 10^−6 M” value in the data set on muscarinic receptors was determined as 0%.

The compound `CCC1=C(c2cccc3sccc23)N2CCN=C2S1.O=C(O)/C=C/C(=O)O` [Example 25, 3-(benzo[b]thiophen-4-yl)-2-ethyl-5,6-dihydroimidazo[2,1-b]thiazole fumarate] yielded a melting point of 171 to 173 °C. This compound also registered a Ki in data set [1] of 5.4 nM. The same compound had a Ki at muscarinic receptors (fumarate) of 249 nM.

Regarding `Br.CCC1=C(c2cc3cc(Cl)ccc3s2)N2CCN=C2S1` [Example 11, 3-(5-chlorobenzo[b]thiophen-2-yl)-2-ethyl-5,6-dihydroimidazo[2,1-b]thiazole hydrobromide], the melting point is 282 to 284 °C. For the same compound, the inhibition at 1 µM in data set [1] turned out to be 92%. Also, the “Muscarinic % displacement at 10^−6 M” value in the data set on muscarinic receptors was found to be 44%.

`Br.CC1=C(c2cc3ccccc3s2)N2CCN=C2S1` [Example 6, 3-(benzo[b]thiophen-2-yl)-2-methyl-5,6-dihydroimidazo[2,1-b]thiazole hydrobromide]: the melting point was 257 to 259 °C (dec.). The compound also had a Ki in data set [1] of 21 nM. Also, the “Muscarinic % displacement at 10^−6 M” value with muscarinic receptors was −2%.

For the compound `Br.CC1=C(c2cc3c(Cl)cccc3s2)N2CCN=C2S1` [Example 10, 3-(4-chlorobenzo[b]thiophen-2-yl)-2-methyl-5,6-dihydroimidazo[2,1-b]thiazole hydrobromide], the melting point fell in the range of 246 to 248 °C. In data set [1], this compound yielded a Ki of 69.5 nM. Besides, the “Muscarinic % displacement at 10^−6 M” value in the data set on muscarinic receptors came out at 12%.
